How the values were obtained:
Assay in all cases: viability relative to DMSO control (fraction); higher = less drug effect (more viable cells)
Conditions in all cases: 48 h
[1] = compound: CC(C)(C)OC(=O)Nc1ccc(-c2cc(C(=O)NCCCCCCC(=O)NO)no2)cc1
Summary of the method: (§1)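 Primary mononuclear tumour cells (Ficoll-isolated from blood or bone marrow, or processed lymph node; fresh or cryopreserved) were plated at 4 × 10^4 cells per well in 384-well plates with pre-plated compounds at five concentrations, one well each. Medium was RPMI-1640 with penicillin/streptomycin, L-glutamine and human serum, at 37 °C and 5% CO2 for 48 h. Viability was read as CellTiter-Glo luminescence relative to the median of 16 inner DMSO wells.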

[2] = compound: CCCS(=O)(=O)Nc1ccc(F)c(C(=O)c2c[nH]c3ncc(-c4ccc(Cl)cc4)cc23)c1F [Vemurafenib]
Summary of the method: as §1

[3] = compound: OCc1ccc(-c2ccc(-c3ccc(CO)s3)o2)s1
Summary of the method: as §1

[4] = compound: COc1cc(OC)c(/C=C/S(=O)(=O)Cc2ccc(OC)c(NCC(=O)O)c2)c(OC)c1 [Rigosertib]
Summary of the method: as §1

| Test System | viability ([1]; 0.024 µM) | viability ([1]; 0.12 µM) | viability ([1]; 0.6 µM) | viability ([1]; 3 µM) | viability ([1]; 15 µM) | viability ([2]; 0.024 µM) | viability ([2]; 0.12 µM) | viability ([2]; 0.6 µM) | viability ([2]; 3 µM) | viability ([2]; 15 µM) | viability ([3]; 0.024 µM) | viability ([3]; 0.12 µM) | viability ([3]; 0.6 µM) | viability ([3]; 3 µM) | viability ([3]; 15 µM) | viability ([4]; 0.008 µM) | viability ([4]; 0.04 µM) | viability ([4]; 0.2 µM) | viability ([4]; 1 µM) | viability ([4]; 5 µM) |
| --- | --- | --- | --- | --- | --- | --- | --- | --- | --- | --- | --- | --- | --- | --- | --- | --- | --- | --- | --- | --- |
| primary CLL patient cells (S031) | 0.987 | 0.97 | 0.867 | 0.141 | 0.0256 | 1.02 | 1 | 1.03 | 1.05 | 1.06 | 0.885 | 0.907 | 0.884 | 0.711 | 0.106 | 1.01 | 0.997 | 1.03 | 0.945 | 0.297 |
| primary AML patient cells (S037) | 0.958 | 0.799 | 0.522 | 0.38 | 0.38 | 0.931 | 1.03 | 0.892 | 1.12 | 1.06 | 0.992 | 0.922 | 0.629 | 0.508 | 0.439 | 0.937 | 1 | 0.954 | 0.966 | 0.845 |
| primary AML patient cells (S060) | 1.09 | 1.05 | 0.969 | 0.206 | 0.0414 | 1.01 | 1.01 | 1 | 1.03 | 1.03 | 1.06 | 0.956 | 0.447 | 0.368 | 0.145 | 0.918 | 0.95 | 0.975 | 0.928 | 0.87 |
| primary AML patient cells (S021) | 0.81 | 0.761 | 0.582 | 0.401 | 0.27 | 0.984 | 1.02 | 1.06 | 1.04 | 1.02 | 0.908 | 0.846 | 0.697 | 0.411 | 0.322 | 0.928 | 1.02 | 0.927 | 0.996 | 0.857 |
| primary AML patient cells (S055) | 0.958 | 0.956 | 0.829 | 0.468 | 0.0614 | 1.03 | 0.958 | 1.02 | 1.01 | 0.99 | 0.979 | 0.955 | 0.647 | 0.27 | 0.0876 | 0.972 | 1.02 | 0.96 | 0.996 | 0.975 |
| primary B-PLL patient cells (S016) | 1.07 | 0.793 | 0.4 | 0.177 | 0.0354 | 0.934 | 0.948 | 1.02 | 1.01 | 0.981 | 0.989 | 1.07 | 0.892 | 0.928 | 0.402 | 0.976 | 1.04 | 0.948 | 0.961 | 0.455 |
| primary FL patient cells (S022) | 0.921 | 0.849 | 0.939 | 0.84 | 0.204 | 0.992 | 1.17 | 0.965 | 1.05 | 1.22 | 0.946 | 1.05 | 0.969 | 1.02 | 0.512 | 1.02 | 0.951 | 1.02 | 0.919 | 0.865 |
| primary CLL patient cells (S043) | 0.9 | 0.886 | 0.755 | 0.396 | 0.0668 | 0.997 | 0.977 | 1.03 | 0.969 | 1.07 | 0.886 | 0.841 | 0.766 | 0.752 | 0.458 | 0.911 | 0.919 | 0.849 | 0.905 | 0.632 |
| primary AML patient cells (S006) | 0.998 | 0.978 | 1.04 | 0.377 | 0.112 | 0.933 | 1.04 | 0.93 | 1.02 | 1.02 | 0.865 | 0.677 | 0.177 | 0.0966 | 0.0523 | 1.03 | 1.06 | 1.08 | 1.06 | 0.975 |
| primary MCL patient cells (S041) | 1.02 | 0.884 | 0.65 | 0.221 | 0.0737 | 0.961 | 1 | 0.944 | 0.979 | 1.04 | 0.981 | 0.99 | 0.923 | 0.843 | 0.581 | 0.999 | 1.01 | 0.993 | 1 | 0.668 |
| primary MCL patient cells (S053) | 0.605 | 0.463 | 0.239 | 0.098 | 0.0587 | 0.936 | 0.959 | 0.996 | 1.04 | 1.07 | 0.815 | 0.869 | 0.663 | 0.511 | 0.168 | 0.891 | 0.922 | 0.629 | 0.518 | 0.269 |

From the supplement of paper PMC10733146
